Experiments:
Assay type in all cases: cell-based
[1] = test system: Ba/F3 cells expressing EGFR-wt; assay: Growth inhibition (GI50) of Ba/F3 cells expressing EGFR-wt, Celltiter glo; settings: Mus musculus, BaF3, 72 h
In short: (§1)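 Ba/F3 cells carrying each EGFR variant were plated at 100,000 cells/ml; after 4 h, compound was added as 10-point 4-fold dilutions (top stock 2 mM, 0.5% DMSO). After 72 h at 37 °C, viability was read by CellTiter-Glo; GI50 is the molar concentration (μM) giving 50% growth inhibition.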

[2] = test system: Ba/F3 cells expressing del19/T790M/C797S (EGFR-DTC); assay: Growth inhibition (GI50) of Ba/F3 cells expressing del19/T790M/C797S (EGFR-DTC), Celltiter glo; settings: Mus musculus, BaF3, 72 h
In short: as §1

[3] = test system: Ba/F3 cells expressing L858R/T790M/C797S (EGFR-LTC); assay: Growth inhibition (GI50) of Ba/F3 cells expressing L858R/T790M/C797S (EGFR-LTC), Celltiter glo; settings: Mus musculus, BaF3, 72 h
In short: as §1

[4] = test system: Ba/F3 cells expressing del19/T790M (EGFR-DT); assay: Growth inhibition (GI50) of Ba/F3 cells expressing del19/T790M (EGFR-DT), Celltiter glo; settings: Mus musculus, BaF3, 72 h
In short: as §1

[5] = test system: Ba/F3 cells expressing L858R/T790M (EGFR-LT); assay: Growth inhibition (GI50) of Ba/F3 cells expressing L858R/T790M (EGFR-LT), Celltiter glo; settings: Mus musculus, BaF3, 72 h
In short: as §1

parental Ba/F3 cell line = assay: Growth inhibition (GI50) of the parental Ba/F3 cell line (not introduced with EGFR variants), Celltiter glo; settings: Mus musculus, BaF3, 72 h, parental Ba/F3 cells
In short: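 Parental Ba/F3 cells (100,000 cells/ml) were treated with 10-point, 4-fold compound dilutions (0.5% DMSO; top stock 2 mM) for 72 h at 37 °C, 5% CO2. Viability was read by CellTiter-Glo; GI50 is the concentration (μM) giving 50% growth inhibition.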

Compound | GI50 [1] [nM] | GI50 [2] [nM] | GI50 [3] [nM] | GI50 [4] [nM] | GI50 [5] [nM] | GI50 (parental Ba/F3 cell line) [nM]
COc1cc(N2CCC(N3CCN(C)CC3)CC2)c(F)cc1Nc1ncc(Cl)c(Nc2cc3c(cc2NS(C)(=O)=O)CCO3)n1 [Example 222, N-(6-((5-chloro-2-((5-fluoro-2-methoxy-4-(4-(4-methylpiperazin-1-yl)piperidin-1-yl)phenyl)amino)pyrimidin-4-yl)amino)-2,3-dihydrobenzofuran-5-yl)methanesulfonamide] | 100 to 500 | 1 to 25 | 100 to 500 | 1 to 25 | 1 to 25 | 2000 to 10000
CN1CCN(C2CCN(c3ccc4cc(Nc5ncc(Cl)c(Nc6cc7c(cc6NS(C)(=O)=O)CCO7)n5)ccc4n3)CC2)CC1 [Example 223, N-(6-((5-chloro-2-((2-(4-(4-methylpiperazin-1-yl)piperidin-1-yl)quinolin-6-yl)amino)pyrimidin-4-yl)amino)-2,3-dihydrobenzofuran-5-yl)methanesulfonamide] | 2000 to 10000 | 500 to 2000 | 500 to 2000 | 100 to 500 | 100 to 500 | 2000 to 10000
COc1cc(N2CCC(Nc3ccnn3C)CC2)c(C)cc1Nc1ncc(Cl)c(Nc2cc3c(cc2NS(C)(=O)=O)CCO3)n1 [Example 224, N-(6-((5-chloro-2-((2-methoxy-5-methyl-4-(4-((1-methyl-1H-pyrazol-5-yl)amino)piperidin-1-yl)phenyl)amino)pyrimidin-4-yl)amino)-2,3-dihydrobenzofuran-5-yl)methanesulfonamide] | 500 to 2000 | 25 to 100 | 25 to 100 | 100 to 500 | 25 to 100 | 100 to 500
COc1cc(N2CCC(N3CCN(C(F)(F)F)CC3)CC2)c(C)cc1Nc1ncc(Cl)c(Nc2cc3c(cc2NS(C)(=O)=O)CCO3)n1 [Example 225, N-(6-((5-chloro-2-((2-methoxy-5-methyl-4-(4-(4-(trifluoromethyl)piperazin-1-yl)piperidin-1-yl)phenyl)amino)pyrimidin-4-yl)amino)-2,3-dihydrobenzofuran-5-yl)methanesulfonamide] | 500 to 2000 | 1 to 25 | 25 to 100 | 25 to 100 | 25 to 100 | 2000 to 10000
CN1CCN(C2CCN(c3cc(Cl)c(Nc4ncc(Cl)c(Nc5cc(Cl)ccc5N(C)S(C)(=O)=O)n4)cc3Cl)CC2)CC1 [Example 226, N-(4-chloro-2-((5-chloro-2-((2,5-dichloro-4-(4-(4-methylpiperazin-1-yl)piperidin-1-yl)phenyl)amino)pyrimidin-4-yl)amino)phenyl)-N-methylmethanesulfonamide] | 100 to 500 | 25 to 100 | 25 to 100 | 25 to 100 | 25 to 100 | 500 to 2000
Cc1cc(Nc2ncc(Br)c(Nc3cc(Cl)ccc3N(C)S(C)(=O)=O)n2)c(Cl)cc1N1CCC(N2CCC(N(C)C)C2)CC1 (stereo not drawn) [Example 227, N-(2-((5-bromo-2-((2-chloro-4-(4-(3-(dimethylamino)pyrrolidin-1-yl)piperidin-1-yl)-5-methylphenyl)amino)pyrimidin-4-yl)amino)-4-chlorophenyl)-N-methylmethanesulfonamide] | 1 to 25 | 1 to 25 | 25 to 100 | 1 to 25 | 1 to 25 | 100 to 500
CN1CCN(C2CCN(c3cc(Cl)c(Nc4ncc(Br)c(Nc5cc(Cl)ccc5N(C)S(C)(=O)=O)n4)cc3Cl)CC2)CC1 [Example 228, N-(2-((5-bromo-2-((2,5-dichloro-4-(4-(4-methylpiperazin-1-yl)piperidin-1-yl)phenyl)amino)pyrimidin-4-yl)amino)-4-chlorophenyl)-N-methylmethanesulfonamide] | 100 to 500 | 1 to 25 | 25 to 100 | 25 to 100 | 1 to 25 | 100 to 500
COc1ccc(NS(C)(=O)=O)c(Nc2nc(Nc3cc(Cl)c(N4CCC(N5CCCN(C)CC5)CC4)cc3OC)ncc2Cl)c1 [Example 229, N-(2-((5-chloro-2-((5-chloro-2-methoxy-4-(4-(4-methyl-1,4-diazepan-1-yl)piperidin-1-yl)phenyl)amino)pyrimidin-4-yl)amino)-4-methoxyphenyl)methanesulfonamide] | 500 to 2000 | 25 to 100 | 100 to 500 | 1 to 25 | 25 to 100 | 2000 to 10000
COc1ccc(NS(C)(=O)=O)c(Nc2nc(Nc3cc(C)c(N4CCC(N5CCC(N(C)C)C5)CC4)cc3Cl)ncc2Cl)c1 (stereo not drawn) [Example 230, N-(2-((5-chloro-2-((2-chloro-4-(4-(3-(dimethylamino)pyrrolidin-1-yl)piperidin-1-yl)-5-methylphenyl)amino)pyrimidin-4-yl)amino)-4-methoxyphenyl)methanesulfonamide] | 500 to 2000 | 100 to 500 | 100 to 500 | 25 to 100 | 100 to 500 | 2000 to 10000
COc1ccc(NS(C)(=O)=O)c(Nc2nc(Nc3ccc(N4CCC(N5CCN(C)CC5)CC4)cc3OC)ncc2Cl)c1 [Example 231, N-(2-((5-chloro-2-((2-methoxy-4-(4-(4-methylpiperazin-1-yl)piperidin-1-yl)phenyl)amino)pyrimidin-4-yl)amino)-4-methoxyphenyl)methanesulfonamide] | 2000 to 10000 | 100 to 500 | 100 to 500 | 100 to 500 | 100 to 500 | 2000 to 10000
COc1ccc(NS(C)(=O)=O)c(Nc2nc(Nc3cc(C)c(N4CCC(N5CCCC(N(C)C)C5)CC4)cc3OC)ncc2Cl)c1 (stereo not drawn) [Example 232, N-(2-((5-chloro-2-((4-(3-(dimethylamino)-[1,4′-bipiperidin]-1′-yl)-2-methoxy-5-methylphenyl)amino)pyrimidin-4-yl)amino)-4-methoxyphenyl)methanesulfonamide] | 500 to 2000 | 25 to 100 | 100 to 500 | 25 to 100 | 100 to 500 | 2000 to 10000
COc1ccc(NS(C)(=O)=O)c(Nc2nc(Nc3cc(C)c(N4CCC(N5CCN(C6CC6)CC5)CC4)cc3OC)ncc2Cl)c1 [Example 233, N-(2-((5-chloro-2-((4-(4-(4-cyclopropylpiperazin-1-yl)piperidin-1-yl)-2-methoxy-5-methylphenyl)amino)pyrimidin-4-yl)amino)-4-methoxyphenyl)methanesulfonamide] | 500 to 2000 | 25 to 100 | 25 to 100 | 25 to 100 | 25 to 100 | 2000 to 10000
COc1ccc(NS(C)(=O)=O)c(Nc2nc(Nc3cc(C)c(N4CCC(N5CCC(C(F)(F)F)CC5)CC4)cc3OC)ncc2Cl)c1 [Example 234, N-(2-((5-chloro-2-((2-methoxy-5-methyl-4-(4-(trifluoromethyl)-[1,4′-bipiperidin]-1′-yl)phenyl)amino)pyrimidin-4-yl)amino)-4-methoxyphenyl)methanesulfonamide] | 2000 to 10000 | 100 to 500 | 100 to 500 | 100 to 500 | 100 to 500 | 2000 to 10000
COc1ccc(NS(C)(=O)=O)c(Nc2nc(Nc3cc(C)c(N4CCC(N5CCC(N(C)C)C5)CC4)cc3OC)ncc2Cl)c1 (stereo not drawn) [Example 235, N-(2-((5-chloro-2-((4-(4-(3-(dimethylamino)pyrrolidin-1-yl)piperidin-1-yl)-2-methoxy-5-methylphenyl)amino)pyrimidin-4-yl)amino)-4-methoxyphenyl)methanesulfonamide] | 500 to 2000 | 25 to 100 | 100 to 500 | 25 to 100 | 100 to 500 | 2000 to 10000
COc1ccc(NS(C)(=O)=O)c(Nc2nc(Nc3cc(C)c(N4CCC(N5CCCC(N(C)C)C5)CC4)cc3Cl)ncc2Cl)c1 (stereo not drawn) [Example 236, N-(2-((5-chloro-2-((2-chloro-4-(3-(dimethylamino)-[1,4′-bipiperidin]-1′-yl)-5-methylphenyl)amino)pyrimidin-4-yl)amino)-4-methoxyphenyl)methanesulfonamide] | 2000 to 10000 | 100 to 500 | 100 to 500 | 100 to 500 | 100 to 500 | 2000 to 10000
COc1ccc(NS(C)(=O)=O)c(Nc2nc(Nc3cc(Cl)c(N4CCC(N5CCCC(N(C)C)C5)CC4)cc3OC)ncc2Cl)c1 (stereo not drawn) [Example 237, N-(2-((5-chloro-2-((5-chloro-4-(3-(dimethylamino)-[1,4′-bipiperidin]-1′-yl)-2-methoxyphenyl)amino)pyrimidin-4-yl)amino)-4-methoxyphenyl)methanesulfonamide] | 500 to 2000 | 100 to 500 | 1 to 25 | 100 to 500 | 1 to 25 | 2000 to 10000
COc1nc(N2CCCN(C)CC2)ccc1Nc1ncc(Br)c(Nc2cc3c(cc2NS(C)(=O)=O)CCO3)n1 [Example 238, N-(6-((5-bromo-2-((2-methoxy-6-(4-methyl-1,4-diazepan-1-yl)pyridin-3-yl)amino)pyrimidin-4-yl)amino)-2,3-dihydrobenzofuran-5-yl)methanesulfonamide] | 2000 to 10000 | 2000 to 10000 | 100 to 500 | 2000 to 10000 | 100 to 500 | 2000 to 10000

Source: US20240228458A1, “PYRIMIDINE DERIVATIVE HAVING PROTEIN KINASE INHIBITORY ACTIVITY, AND THERAPEUTIC PHARMACEUTICAL COMPOSITION COMPRISING SAME” (THERAPEX CO., LTD., priority 2021, published 2024)
